The text below walks through data of US4056626A, “Pharmaceutical composition containing benzofuran derivative” (Kakenyaku Kako Co., Ltd., priority 1971, dated 1977).

Like-named read-outs stand apart in the source and are kept apart here.

Data set [1] concerns isoproterenol antagonism concerning myocardial contractile force, heart rate and diastolic blood pressure. In words: isoproterenol antagonism in anesthetized dogs. The format is in vivo. As to conditions: for ED50: Canis lupus familiaris, iv; for Inhibition of decrease in diastolic blood pressure, relative activity / Inhibition of increase in heart rate, relative activity / Inhibition of increase in myocardial contractile force, relative activity: activity of Propranolol is 1. The procedure:
Male and female dogs weighing 9 kg. to 20 kg. were employed. The dogs were anesthetized with barbital sodium (30 mg./kg.) given intraperitoneally. The compounds to be tested and isoproterenol were administered in femoral vein through a canula.
The maximum increase was adopted as the increase in myocardial contractile force. The increase after 1 minute from the administration of isoproterenol was adopted as the increase in heart rate. The maximum decrease was adopted as the decrease in diastolic blood pressure. Then, the compounds to be tested were administered in a dose of 0.01 to 100 μg./kg. After an interval of 2 minutes, isoproterenol was again administered in a dose of 0.3 μg./kg. After the second administration of isoproterenol, the maximum increase in myocardial contractile force, the increase after 1 minute from the administration of isoproterenol in heart rate and the maximum decrease in diastolic blood pressure were again determined.

A short description of another data set: in vivo. Particulars: mouse, iv.
For data set [2], the system named is isoproterenol antagonism concerning myocardial contractile force and heart rate in isolated guinea-pig atria. In words: isoproterenol antagonism in isolated guinea-pig atria. Particulars: for Inhibition of increase in heart rate ED 50 / Inhibition of increase in myocardial contractile force ED 50: 37° C., isoproterenol 1 × 10^-8 g./ml., 50% inhibition; for Inhibition of increase in heart rate, relative activity / Inhibition of increase in myocardial contractile force, relative activity: activity of Propranolol is 1. The procedure: Isolated guinea-pig atrium was mounted in a chamber containing Ringer-Lockesolution (37° C.), through which a mixed gas of 95% O2 and 5% CO2 was continuously bubbled. Isoproterenol was added to the solution at a concentration of 1 × 10^-^8 g./ml.

Setting [3] is: anesthetized dogs, femoral vein, isoproterenol 0.3 μg./kg., 50% inhibition, read-out: Inhibition of decrease in diastolic blood pressure ED50.
Setting [4] is: anesthetized dogs, femoral vein, isoproterenol 0.3 μg./kg., 50% inhibition, read-out: Inhibition of increase in heart rate ED50.
[5] abbreviates: anesthetized dogs, femoral vein, isoproterenol 0.3 μg./kg., 50% inhibition, read-out: Inhibition of increase in myocardial contractile force ED50.

Consider `CC(=NC(C)C)c1cc2cccc(OCC(O)CNC(C)C)c2o1` (stereo not drawn) [Compound No. 1, 2-(1-isopropyliminoethyl)-7-(2-hydroxy-3-isopropylaminopropoxy)benzofuran], for which the ED50 (usually the midpoint of the dose-response relation) in data set [1] (setting [3]) turned out to be 0.3 µg/kg. The ED50 in data set [1] (setting [4]) is 0.42 µg/kg. Also, in data set [1] (setting [5]), the median effective dose (ED50) was found to be 0.6 µg/kg. In data set [1] (anesthetized dogs), the “Inhibition of decrease in diastolic blood pressure, relative activity” value (“Inhibition of decrease … relative activity” for short) is 3.1; the “Inhibition of increase in heart rate, relative activity” value amounted to 25.0; the “Inhibition of increase in myocardial contractile force, relative activity” value is recorded as 15.9. The median lethal dose (LD50) (usually the dose at which mortality reaches 50%) at 24 h in the data set “in vivo” was 65000 to 70000 µg/kg. Besides, in data set [2], the “Inhibition of increase in heart rate ED 50” value is 0.014 µg/mL; the “Inhibition of increase in myocardial contractile force ED 50” value worked out at 0.0017 µg/mL; the “Inhibition of increase in heart rate, relative activity” value turned out to be 7.1; the “Inhibition of increase in myocardial contractile force, relative activity” value was found to be 5.9.
Turning to `CC(=O)c1cc2c(OCC(O)CNC(C)(C)C)cccc2o1` (stereo not drawn) [Compound No. 2, 2-acetyl-4-(2-hydroxy-3-tert.-butylaminopropoxy)benzofuran], the ED50 in data set [1] (setting [3]) turned out to be 0.92 µg/kg. Moreover, the ED50 in data set [1] (setting [4]) was determined as 35.2 µg/kg. In addition, the 50% effective dose (ED50) in data set [1] (setting [5]) amounted to 8.62 µg/kg. For the same molecule, in data set [1] (anesthetized dogs), the “Inhibition of decrease … relative activity” value is given as 1.0; the “Inhibition of increase in heart rate, relative activity” value turned out to be 0.3; the “Inhibition of increase in myocardial contractile force, relative activity” value stood at 1.1. Moreover, the LD50 at 24 h in the data set “in vivo” lay in the range of 35000 to 40000 µg/kg. In data set [2], the “Inhibition of increase in heart rate ED 50” value was 0.045 µg/mL; the “Inhibition of increase in myocardial contractile force ED 50” value worked out at 0.017 µg/mL; the “Inhibition of increase in heart rate, relative activity” value was 2.2; the “Inhibition of increase in myocardial contractile force, relative activity” value turned out to be 0.6.
Take `CC(=O)c1cc2cccc(OCC(O)CNC(C)C)c2o1` (stereo not drawn) [Compound No. 3, 2-acetyl-7-(2-hydroxy-3-isopropylaminopropoxy)benzofuran]: the 50% effective dose (ED50) in data set [1] (setting [3]) stood at 0.18 µg/kg. The 50% effective dose (ED50) in data set [1] (setting [4]) amounted to 0.52 µg/kg. Moreover, in data set [1] (setting [5]), the median effective dose (ED50) came to 3.4 µg/kg. In data set [1] (anesthetized dogs), the “Inhibition of decrease … relative activity” value is 5.3; the “Inhibition of increase in heart rate, relative activity” value worked out at 21.0; the “Inhibition of increase in myocardial contractile force, relative activity” value is 2.8. Further, the LD50 at 24 h in “in vivo” lay in the range of 100000 to 105000 µg/kg. Moreover, in data set [2], the “Inhibition of increase in heart rate ED 50” value worked out at 0.04 µg/mL; the “Inhibition of increase in myocardial contractile force ED 50” value came out at 0.005 µg/mL; the “Inhibition of increase in heart rate, relative activity” value was 2.5; the “Inhibition of increase in myocardial contractile force, relative activity” value is recorded as 2.0.
For `CC(=O)c1cc2cccc(OCC(O)CNC(C)(C)C)c2o1` (stereo not drawn) [Compound No. 4, 2-acetyl-7-(2-hydroxy-3-tert.-butylaminopropoxy)benzofuran], in data set [1] (setting [3]), the ED50 is 0.72 µg/kg. In data set [1] (setting [4]), the 50% effective dose (ED50) was 3.5 µg/kg. Further, the 50% effective dose (ED50) in data set [1] (setting [5]) was 6.33 µg/kg. Further, in data set [1] (anesthetized dogs), the “Inhibition of decrease … relative activity” value was 1.3; the “Inhibition of increase in heart rate, relative activity” value is reported as 3.0; the “Inhibition of increase in myocardial contractile force, relative activity” value was determined as 1.5. Also, in the data set “in vivo”, the LD50 at 24 h lay within 45000 to 55000 µg/kg. Further, in data set [2], the “Inhibition of increase in heart rate ED 50” value stood at 0.033 µg/mL; the “Inhibition of increase in myocardial contractile force ED 50” value turned out to be 0.004 µg/mL; the “Inhibition of increase in heart rate, relative activity” value is on record as 3.0; the “Inhibition of increase in myocardial contractile force, relative activity” value is listed as 2.5.
Consider `CC(=NC(C)C)c1cc2c(OCC(O)CNC(C)C)cccc2o1` (stereo not drawn) [Compound No. 6, 2-(1-isopropyliminoethyl)-4-(2-hydroxy-3-isopropylaminopropoxy)benzofuran], for which the 50% effective dose (ED50) in data set [1] (setting [4]) turned out to be 0.21 µg/kg. In data set [1] (setting [5]), the ED50 turned out to be 5.93 µg/kg. In data set [1] (anesthetized dogs), the “Inhibition of decrease … relative activity” value is given as 30.2; the “Inhibition of increase in heart rate, relative activity” value came out at 50.0; the “Inhibition of increase in myocardial contractile force, relative activity” value is recorded as 1.6. For the same molecule, the 50% lethal dose (LD50) at 24 h in “in vivo” was 45000 to 50000 µg/kg. Further, in data set [2], the “Inhibition of increase in heart rate ED 50” value was found to be 0.014 µg/mL; the “Inhibition of increase in myocardial contractile force ED 50” value turned out to be 0.008 µg/mL; the “Inhibition of increase in heart rate, relative activity” value came to 7.0; the “Inhibition of increase in myocardial contractile force, relative activity” value turned out to be 1.3.
`CCC(C)NCC(O)COc1cccc2cc(C(C)=O)oc12` (stereo not drawn) [Compound No. 7, 2-acetyl-7-(2-hydroxy-3-sec.-butylaminopropoxy)benzofuran]: the ED50 in data set [1] (setting [3]) was 2.35 µg/kg. Further, in data set [1] (setting [4]), the ED50 is 7.07 µg/kg. In data set [1] (setting [5]), the median effective dose (ED50) came out at 5.59 µg/kg. In data set [1] (anesthetized dogs), the “Inhibition of decrease … relative activity” value is reported as 0.4; the “Inhibition of increase in heart rate, relative activity” value came to 1.5; the “Inhibition of increase in myocardial contractile force, relative activity” value worked out at 1.7. Besides, the LD50 at 24 h in the data set “in vivo” was 75000 to 80000 µg/kg. Also, in data set [2], the “Inhibition of increase in heart rate ED 50” value stood at 0.067 µg/mL; the “Inhibition of increase in myocardial contractile force ED 50” value was found to be 0.0048 µg/mL; the “Inhibition of increase in heart rate, relative activity” value was 1.5; the “Inhibition of increase in myocardial contractile force, relative activity” value is given as 2.0.
Consider `CCc1cc2c(C(C)=O)ccc(OCC(O)CNC(C)C)c2o1` (stereo not drawn) [Compound No. 8, 2-ethyl-4-acetyl-7-(2-hydroxy-3-isopropylaminopropoxy)benzofuran], for which, in data set [1] (setting [3]), the median effective dose (ED50) was 1.9 µg/kg. Also, the ED50 in data set [1] (setting [4]) is 0.3 µg/kg. In data set [1] (setting [5]), the ED50 stood at 6.4 µg/kg. Moreover, in data set [1] (anesthetized dogs), the “Inhibition of decrease … relative activity” value turned out to be 0.5; the “Inhibition of increase in heart rate, relative activity” value came out at 35.0; the “Inhibition of increase in myocardial contractile force, relative activity” value is 1.5. This molecule had a 50% lethal dose (LD50) at 24 h in “in vivo” of 120000 to 125000 µg/kg. For the same molecule, in data set [2], the “Inhibition of increase in heart rate ED 50” value is 0.053 µg/mL; the “Inhibition of increase in myocardial contractile force ED 50” value was 0.0091 µg/mL; the “Inhibition of increase in heart rate, relative activity” value is listed as 1.9; the “Inhibition of increase in myocardial contractile force, relative activity” value came to 1.1.
In the case of `CCC(C)N=C(C)c1cc2cccc(OCC(O)CNC(C)CC)c2o1` (stereo not drawn) [Compound No. 9, 2-(1-sec.-butyliminoethyl)-7-(2-hydroxy-3-sec.-butylaminopropoxy)benzofuran], the ED50 in data set [1] (setting [3]) is 0.16 µg/kg. Also, the ED50 in data set [1] (setting [4]) was 0.53 µg/kg. Also, the median effective dose (ED50) in data set [1] (setting [5]) came out at 0.73 µg/kg. In data set [1] (anesthetized dogs), the “Inhibition of decrease … relative activity” value is listed as 6.0; the “Inhibition of increase in heart rate, relative activity” value is 20.0; the “Inhibition of increase in myocardial contractile force, relative activity” value came out at 13.1. Further, the LD50 at 24 h in the data set “in vivo” is 75000 to 80000 µg/kg. In data set [2], the “Inhibition of increase in heart rate ED 50” value came to 0.06 µg/mL; the “Inhibition of increase in myocardial contractile force ED 50” value amounted to 0.004 µg/mL; the “Inhibition of increase in heart rate, relative activity” value is 1.6; the “Inhibition of increase in myocardial contractile force, relative activity” value was 2.5.
In the case of `CCC(C)N=C(C)c1cc2c(OCC(O)CNC(C)CC)cccc2o1` (stereo not drawn) [Compound No. 10, 2-(1-sec.-butyliminoethyl)-4-(2-hydroxy-3-sec.-butylaminopropoxy)benzofuran], the ED50 in data set [1] (setting [4]) came out at 0.21 µg/kg. Further, the median effective dose (ED50) in data set [1] (setting [5]) worked out at 3.95 µg/kg. For the same molecule, in data set [1] (anesthetized dogs), the “Inhibition of decrease … relative activity” value was found to be 23.5; the “Inhibition of increase in heart rate, relative activity” value is recorded as 50.0; the “Inhibition of increase in myocardial contractile force, relative activity” value is reported as 2.4. The LD50 at 24 h in the data set “in vivo” lay in the range of 60000 to 65000 µg/kg. In data set [2], the “Inhibition of increase in heart rate ED 50” value was 0.04 µg/mL; the “Inhibition of increase in myocardial contractile force ED 50” value amounted to 0.0059 µg/mL; the “Inhibition of increase in heart rate, relative activity” value came out at 2.5; the “Inhibition of increase in myocardial contractile force, relative activity” value came to 1.7.
On to `CC(C)NCC(O)COc1cccc2ccccc12` (stereo not drawn) [Propranolol, reference compound], for which the median effective dose (ED50) in data set [1] (read-out: Inhibition of decrease in diastolic blood pressure ED50) was determined as 0.94 µg/kg; in data set [1] (read-out: Inhibition of increase in heart rate ED50) it was 10.6 µg/kg; in data set [1] (read-out: Inhibition of increase in myocardial contractile force ED50) it was 9.5 µg/kg.
For `CCOC(=O)c1cc2cccc(OCC(O)CNC(C)C)c2o1` (stereo not drawn) [compound 5, 2-carbethoxy-7-(2-hydroxy-3-isopropylaminopropoxy)benzofuran], in data set [1] (setting [3]), the 50% effective dose (ED50) came out at 1.57 µg/kg. Besides, in data set [1] (setting [4]), the ED50 amounted to 0.21 µg/kg. For the same molecule, the ED50 in data set [1] (setting [5]) amounted to 9.5 µg/kg. In data set [1] (anesthetized dogs), the “Inhibition of decrease … relative activity” value is 0.6; the “Inhibition of increase in heart rate, relative activity” value is given as 50.0; the “Inhibition of increase in myocardial contractile force, relative activity” value is recorded as 1.0. Also, in “in vivo”, the LD50 at 24 h is 50000 to 55000 µg/kg. In addition, in data set [2], the “Inhibition of increase in heart rate ED 50” value amounted to 0.029 µg/mL; the “Inhibition of increase in myocardial contractile force ED 50” value came to 0.0055 µg/mL; the “Inhibition of increase in heart rate, relative activity” value came out at 3.5; the “Inhibition of increase in myocardial contractile force, relative activity” value is given as 1.8.
